Measurements published in DBAASP.
Converted amounts (≈) assume the structure as drawn.

Tests used:
Experiment in all cases: ≥ marks a high value that may be exact or a test limit, other limits are often not marked, values filed in µg/mL are converted to µM
[1] = test system: Escherichia coli ATCC 25922
[2] = test system: Klebsiella pneumoniae ATCC 13883
[3] = test system: Listeria monocytogenes ATCC 35152
[4] = test system: Pseudomonas aeruginosa ATCC 27853
[5] = test system: Staphylococcus aureus ATCC 25923
Enterobacter cloacae = test system: Enterobacter cloacae
Escherichia coli P4 = test system: Escherichia coli P4
Escherichia coli = test system: Escherichia coli
Klebsiella aerogenes = test system: Klebsiella aerogenes
Klebsiella pneumoniae = test system: Klebsiella pneumoniae
Pseudomonas aeruginosa = test system: Pseudomonas aeruginosa
Serratia marcescens = test system: Serratia marcescens
[6] = test system: Staphylococcus aureus ATCC 29213
Acinetobacter sp. = test system: Acinetobacter sp.
[7] = test system: Bacillus subtilis ATCC 6633
[8] = test system: Pseudomonas aeruginosa ATCC 25668
[9] = test system: Staphylococcus aureus ATCC 9144
[10] = test system: Listeria monocytogenes CMCC 54002
[11] = test system: Salmonella typhimurium CMCC 50013
[12] = test system: Shigella dysenteriae CMCC 51302
Streptococcus mutans = test system: Streptococcus mutans
[13] = test system: Streptococcus pyogenes ATCC 12344
[14] = test system: Acinetobacter baumannii ATCC 19606
[15] = test system: Acinetobacter baumannii ATCC BAA-1605
[16] = test system: Acinetobacter baumannii ATCC BAA-747
[17] = test system: Acinetobacter baumannii NR-13375
[18] = test system: Acinetobacter baumannii NR-9667
[19] = test system: Pseudomonas aeruginosa 1017
[20] = test system: Pseudomonas aeruginosa 1109
[21] = test system: Pseudomonas aeruginosa 1125
[22] = test system: Pseudomonas aeruginosa 16011
[23] = test system: Pseudomonas aeruginosa ATCC 10145
[24] = test system: Pseudomonas aeruginosa ATCC 15442
[25] = test system: Pseudomonas aeruginosa ATCC 25619
[26] = test system: Pseudomonas aeruginosa ATCC 35032
[27] = test system: Pseudomonas aeruginosa ATCC 9027
[28] = test system: Pseudomonas aeruginosa ATCC 9721
[29] = test system: Pseudomonas aeruginosa ATCC BAA-1744
[30] = test system: Staphylococcus aureus ATCC 43300
[31] = test system: Staphylococcus aureus ATCC 6538
[32] = test system: Staphylococcus aureus ATCC BAA-44
[33] = test system: Staphylococcus aureus NRS 19
[34] = test system: Staphylococcus aureus NRS 1
[35] = test system: Staphylococcus aureus NRS 72
[36] = test system: Staphylococcus aureus RN4220
[37] = test system: Staphylococcus aureus USA 100
[38] = test system: Staphylococcus aureus USA 200
[39] = test system: Staphylococcus aureus USA 300
[40] = test system: Staphylococcus aureus VRSA1
[41] = test system: Staphylococcus epidermidis NRS 101

**Q.** For `CC(C)C[C@H](NC(=O)[C@H](CCCN=C(N)N)NC(=O)[C@H](CCCCN)NC(=O)[C@@H](N)Cc1c[nH]c2ccccc12)C(=O)N[C@H](C(=O)N[C@@H](C)C(=O)N[C@@H](C)C(=O)N[C@@H](CO)C(=O)N[C@@H](C)C(=O)N[C@@H](CCCCN)C(=O)N[C@@H](CCCCN)C(=O)N[C@@H](CCCCN)C(N)=O)C(C)C` [WKRLVAASAKKK], which MIC [1] is on record?
**A.** Its MIC is 10.8 µM (≈ 15 µg/mL).

**Q.** And the MIC [2]?
**A.** The MIC was 18 µM (≈ 25 µg/mL).

**Q.** And the MIC [3]?
**A.** The MIC was 10.8 µM (≈ 15 µg/mL).

**Q.** What about the MIC [4] of the same compound?
**A.** The MIC was 14.4 µM (≈ 20 µg/mL).

**Q.** And the MIC [5]?
**A.** The MIC was 7.22 µM (≈ 9.99 µg/mL).

**Q.** How did the MIC (Enterobacter cloacae) turn out when `CC[C@H](C)[C@H](NC(=O)[C@H](Cc1cnc[nH]1)NC(=O)[C@@H](NC(=O)[C@H](CCCN=C(N)N)NC(=O)[C@@H](N)C(C)C)[C@@H](C)CC)C(=O)N[C@@H](CO)C(=O)NCC(=O)N[C@@H](CO)C(=O)N[C@@H](CO)C(=O)N[C@@H](CC(C)C)C(=O)NCC(=O)N[C@@H](Cc1c[nH]c2ccccc12)C(=O)N[C@@H](CC(C)C)C(=O)N[C@H](C(=O)N[C@@H](CCC(N)=O)C(=O)N[C@@H](CC(C)C)C(=O)N[C@@H](Cc1ccccc1)C(=O)N[C@@H](CCCN=C(N)N)C(=O)N[C@@H](CCCCN)C(=O)N[C@@H](CCCN=C(N)N)C(=O)N[C@H](C(=O)N[C@@H](CCC(=O)O)C(=O)N[C@@H](CO)C(=O)N[C@@H](CC(C)C)C(=O)N[C@@H](CC(C)C)C(=O)N[C@@H](CCC(N)=O)C(=O)N[C@@H](CCCCN)C(=O)N[C@@H](CO)C(=O)O)[C@@H](C)CC)[C@@H](C)CC` [VRIHISGSSLGWLIQLFRKRIESLLQKS] was run?
**A.** The MIC was ≥ 78.4 µM.

**Q.** And the MIC [1]?
**A.** The MIC was 55.4 µM (≈ 181 µg/mL).

**Q.** What about the MIC (Escherichia coli P4) of the same compound?
**A.** Its MIC is ≥ 55.4 µM.

**Q.** And the MIC (Escherichia coli)?
**A.** The MIC was 78.4 µM (≈ 256 µg/mL).

**Q.** What about the MIC (Klebsiella aerogenes) of the same compound?
**A.** Its MIC is ≥ 78.4 µM.

**Q.** What about the MIC (Klebsiella pneumoniae) of the same compound?
**A.** Its MIC is > 78.4 µM.

**Q.** What about the MIC (Pseudomonas aeruginosa) of the same compound?
**A.** Its MIC is > 78.4 µM.

**Q.** What about the MIC (Serratia marcescens) of the same compound?
**A.** Its MIC is ≥ 157 µM.

**Q.** And the MIC [6]?
**A.** Its MIC is 55.4 µM (≈ 181 µg/mL).

**Q.** `CC[C@H](C)[C@H](N)C(=O)N[C@@H](CCCCN)C(=O)N1CCC[C@H]1C(=O)N[C@@H](C)C(=O)NCC(=O)N[C@@H](CCCCN)C(=O)N[C@@H](CC(C)C)C(=O)N[C@@H](Cc1ccccc1)C(=O)N[C@@H](CCCCN)C(=O)N[C@@H](CC(C)C)C(=O)N[C@@H](Cc1ccccc1)C(=O)N[C@@H](CCCCN)C(N)=O` [IKPAGKLFKLFK] was tested. Which MIC (Acinetobacter sp.) did it give?
**A.** Its MIC is ≥ 46.1 µM.

**Q.** And the MIC [7]?
**A.** Its MIC is ≥ 368 µM.

**Q.** And the MIC (Escherichia coli)?
**A.** The MIC was 368 µM (≈ 512 µg/mL).

**Q.** What about the MIC [8] of the same compound?
**A.** Its MIC is ≥ 368 µM.

**Q.** What about the MIC [9] of the same compound?
**A.** The MIC was ≥ 368 µM.

**Q.** How did the MIC [1] turn out when `CC(C)C[C@H](NC(=O)CN)C(=O)N[C@@H](Cc1ccccc1)C(=O)N[C@@H](CCCN=C(N)N)C(=O)N[C@@H](C)C(=O)N[C@@H](CC(C)C)C(=O)N[C@@H](CC(C)C)C(=O)N[C@@H](CCCN=C(N)N)C(=O)N[C@@H](CC(C)C)C(=O)N[C@@H](CC(C)C)C(=O)N[C@@H](CCCN=C(N)N)C(=O)N[C@@H](CO)C(=O)N[C@@H](CC(C)C)C(=O)N[C@@H](Cc1c[nH]c2ccccc12)C(=O)N[C@@H](CCCN=C(N)N)C(=O)N[C@@H](CC(C)C)C(=O)N[C@@H](CC(C)C)C(=O)N[C@@H](CC(C)C)C(=O)N[C@@H](CCCN=C(N)N)C(=O)N[C@@H](C)C(=O)O` [GLFRALLRLLRSLWRLLLRA] was run?
**A.** Its MIC is > 64 µM.

**Q.** And the MIC [10]?
**A.** The MIC was ≥ 64 µM.

**Q.** What about the MIC [11] of the same compound?
**A.** Its MIC is ≥ 64 µM.

**Q.** And the MIC [12]?
**A.** The MIC was ≥ 64 µM.

**Q.** What about the MIC [6] of the same compound?
**A.** The MIC was > 64 µM.

**Q.** And the MIC (Streptococcus mutans)?
**A.** Its MIC is ≥ 64 µM.

**Q.** What about the MIC [13] of the same compound?
**A.** Its MIC is ≥ 64 µM.

**Q.** How did the MIC [14] turn out when `CC[C@H](C)[C@H](NC(=O)[C@H](CCCN=C(N)N)NC(=O)[C@H](CCCN=C(N)N)NC(=O)[C@H](CC(C)C)NC(=O)[C@H](Cc1c[nH]c2ccccc12)NC(=O)[C@H](C)NC(=O)[C@H](CCCCN)NC(=O)[C@@H](NC(=O)[C@H](CCCN=C(N)N)NC(=O)[C@H](CCCN=C(N)N)NC(=O)[C@H](CC(C)C)NC(=O)[C@@H](N)Cc1c[nH]c2ccccc12)[C@@H](C)CC)C(=O)N[C@@H](CCCCN)C(=O)N[C@@H](C)C(=O)O` [WLRRIKAWLRRIKA] was run?
**A.** The MIC was 2 µM (≈ 3.73 µg/mL).

**Q.** And the MIC [15]?
**A.** The MIC was 2 µM (≈ 3.73 µg/mL).

**Q.** What about the MIC [16] of the same compound?
**A.** The MIC was 2 µM (≈ 3.73 µg/mL).

**Q.** And the MIC [17]?
**A.** The MIC was 2 µM (≈ 3.73 µg/mL).

**Q.** And the MIC [18]?
**A.** Its MIC is 4 µM (≈ 7.47 µg/mL).

**Q.** What about the MIC [19] of the same compound?
**A.** The MIC was ≥ 32 µM.

**Q.** What about the MIC [20] of the same compound?
**A.** The MIC was 4 µM (≈ 7.47 µg/mL).

**Q.** What about the MIC [21] of the same compound?
**A.** The MIC was 8 µM (≈ 14.9 µg/mL).

**Q.** And the MIC [22]?
**A.** Its MIC is 16 µM (≈ 29.9 µg/mL).

**Q.** And the MIC [23]?
**A.** Its MIC is 8 µM (≈ 14.9 µg/mL).

**Q.** What about the MIC [24] of the same compound?
**A.** Its MIC is 8 µM (≈ 14.9 µg/mL).

**Q.** What about the MIC [25] of the same compound?
**A.** The MIC was 8 µM (≈ 14.9 µg/mL).

**Q.** And the MIC [4]?
**A.** The MIC was 8 µM (≈ 14.9 µg/mL).

**Q.** And the MIC [26]?
**A.** The MIC was 8 µM (≈ 14.9 µg/mL).

**Q.** And the MIC [27]?
**A.** The MIC was 4 µM (≈ 7.47 µg/mL).

**Q.** And the MIC [28]?
**A.** The MIC was 8 µM (≈ 14.9 µg/mL).

**Q.** And the MIC [29]?
**A.** The MIC was 8 µM (≈ 14.9 µg/mL).

**Q.** What about the MIC [30] of the same compound?
**A.** Its MIC is 4 µM (≈ 7.47 µg/mL).

**Q.** And the MIC [31]?
**A.** The MIC was 2 µM (≈ 3.73 µg/mL).

**Q.** What about the MIC [32] of the same compound?
**A.** The MIC was 4 µM (≈ 7.47 µg/mL).

**Q.** What about the MIC [33] of the same compound?
**A.** Its MIC is 4 µM (≈ 7.47 µg/mL).

**Q.** And the MIC [34]?
**A.** The MIC was 2 µM (≈ 3.73 µg/mL).

**Q.** What about the MIC [35] of the same compound?
**A.** Its MIC is 4 µM (≈ 7.47 µg/mL).

**Q.** What about the MIC [36] of the same compound?
**A.** Its MIC is 4 µM (≈ 7.47 µg/mL).

**Q.** And the MIC [37]?
**A.** The MIC was 2 µM (≈ 3.73 µg/mL).

**Q.** What about the MIC [38] of the same compound?
**A.** The MIC was 4 µM (≈ 7.47 µg/mL).

**Q.** What about the MIC [39] of the same compound?
**A.** Its MIC is 4 µM (≈ 7.47 µg/mL).

**Q.** What about the MIC [40] of the same compound?
**A.** The MIC was 4 µM (≈ 7.47 µg/mL).

**Q.** What about the MIC [41] of the same compound?
**A.** Its MIC is 2 µM (≈ 3.73 µg/mL).
